Experimental data as given in US8563505B2, “Hepatitis C virus inhibitors” (priority 2008, dated 2013).

How the values were obtained:
[1] = target: T1, HCV NS3/4A protease complex (Hepatitis C virus genotype 1a, UniProt P27958, C1454S/C1711G); test: FRET peptide assay to monitor HCV NS3/4A proteolytic activity; assay type: biochemical; conditions: NS3/4A strain not stated
T1 construct: DNA encoding the recombinant HCV NS3/4A protease complex (amino acids 1027 to 1711) for these strains; inferred from pET21b vector and Ni-NTA purification) (C); made in house; host or cells: Escherichia coli BL21 (DE3), pET21b
Source text: HCV NS3 protease complexes, derived from the BMS strain, H77 strain or J4L6S strain, were generated, as described below. These purified recombinant proteins were generated for use in a homogeneous assay (see below) to provide an indication of how effective compounds of the present disclosure would be in inhibiting HCV NS3 proteolytic activity.
The H77 and J4L6S strains were used for production of recombinant NS3/4A protease complexes. DNA encoding the recombinant HCV NS3/4A protease complex (amino acids 1027 to 1711) for these strains was manipulated as described by P. Gallinari et al. (see Gallinari P, Paolini C, Brennan D, Nardi C, Steinkuhler C, De Francesco R. Biochemistry. 38(17):5620-32, (1999)). Briefly, a three-lysine solubilizing tail was added at the 3′-end of the NS4A coding region. The cysteine in the P1 position of the NS4A-NS4B cleavage site (amino acid 1711) was changed to a glycine to avoid the proteolytic cleavage of the lysine tag. Furthermore, a cysteine to serine mutation was introduced by PCR at amino acid position 1454 to prevent the autolytic cleavage in the NS3 helicase domain. The variant DNA fragment was cloned in the pET21b bacterial expression vector (Novagen) and the NS3/4A complex was expressed in Escherichia coli strain BL21 (DE3) (Invitrogen) following the protocol described by P. Gallinari et al. (see Gallinari P, Brennan D, Nardi C, Brunetti M, Tomei L, Steinkuhler C, De Francesco R., J Virol. 72(8):6758-69 (1998)) with modifications. Briefly, the NS3/4A protease complex expression was induced with 0.5 millimolar (mM) Isopropyl β-D-1-thiogalactopyranoside (IPTG) for 22 hours (h) at 20° C. A typical fermentation (1 Liter (L)) yielded approximately 10 grams (g) of wet cell paste. The cells were resuspended in lysis buffer (10 mL/g) consisting of 25 mM N-(2-Hydroxyethyl)Piperazine-N′-(2-Ethane Sulfonic acid) (HEPES), pH 7.5, 20% glycerol, 500 mM Sodium Chloride (NaCl), 0.5% Triton X-100, 1 microgram/milliliter ([…]) lysozyme, 5 mM Magnesium Chloride (MgCl2), 1 μg/ml DnaseI, 5 mM […] (βME), Protease inhibitor-Ethylenediamine Tetraacetic acid (EDTA) free (Roche), homogenized and incubated for 20 minutes (min) at 4° C. The homogenate was sonicated and clarified by ultra-centrifugation at 235000 g for 1 hour (h) at 4° C. Imidazole was added to the supernatant to a final concentration of 15 mM and the pH adjusted to 8.0. The crude protein extract was loaded on a Nickel-Nitrilotriacetic acid (Ni-NTA) column pre-equilibrated with buffer B (25 mM HEPES, pH 8.0, 20% glycerol, 500 mM NaCl, 0.5% Triton X-100, 15 mM imidazole, 5 mM βME). The sample was loaded at a flow rate of 1 mL/min. The column was washed with 15 column volumes of buffer C (same as buffer B except with 0.2% Triton X-100). The protein was eluted with 5 column volumes of buffer D (same as buffer C except with 200 mM Imidazole).
NS3/4A protease complex-containing fractions were pooled and loaded on a desalting column Superdex-S200 pre-equilibrated with buffer D (25 mM HEPES, pH 7.5, 20% glycerol, 300 mM NaCl, 0.2% Triton X-100, 10 mM (βME). Sample was loaded at a flow rate of 1 mL/min. NS3/4A protease complex-containing fractions were pooled and concentrated to approximately 0.5 mg/ml. The purity of the NS3/4A protease complexes, derived from the BMS, H77 and J4L6S strains, were judged to be greater than 90% by SDS-PAGE and mass spectrometry analyses. The enzyme was stored at −80° C., thawed on ice and diluted prior to use in assay buffer.
The purpose of this in vitro assay was to measure the inhibition of HCV NS3 protease complexes, derived from the BMS strain, H77 strain or J4L6S strain, as described above, by compounds of the present disclosure. This assay provides an indication of how effective compounds of the present disclosure would be in inhibiting HCV NS3 proteolytic activity.
In order to monitor HCV NS3/4A protease activity, an NS3/4A peptide substrate was used. […]

[2] = test system: HCV replicon in HUH-7 cells; test: HCV replicon assay (FRET, confirmed by luciferase reporter); assay type: cell-based, Hepatitis C virus (strain 1b); conditions: Hepatitis C virus, 96 h, HUH-7 replicon cells, 4 days
Source text: An HCV replicon whole cell system was established as described by Lohmann V, Korner F, Koch J, Herian U, Theilmann L, Bartenschlager R., Science 285(5424):110-3 (1999). This system enabled us to evaluate the effects of our HCV Protease compounds on HCV RNA replication. Briefly, using the HCV strain 1b sequence described in the Lohmann paper (Assession number: AJ238799), an HCV cDNA was synthesized by Operon Technologies, Inc. (Alameda, Calif.), and the full-length replicon was then assembled in plasmid pGem9zf(+) (Promega, Madison, Wis.) using standard molecular biology techniques. The replicon consists of (i) the HCV 5′ UTR fused to the first 12 amino acids of the capsid protein, (ii) the neomycin phosphotransferase gene (neo), (iii) the IRES from encephalomyocarditis virus (EMCV), and (iv) HCV NS3 to NS5B genes and the HCV 3′ UTR. Plasmid DNAs were linearized with Seal and RNA transcripts were synthesized in vitro using the T7 MegaScript transcription kit (Ambion, Austin, Tex.) according to manufacturer's directions. In vitro transcripts of the cDNA were transfected into the human hepatoma cell line, HUH-7. […] Resulting cell lines were characterized for positive and negative strand RNA production and protein production over time.
The HCV replicon FRET assay was developed to monitor the inhibitory effects of compounds described in the disclosure on HCV viral replication. HUH-7 cells, constitutively expressing the HCV replicon, were grown in Dulbecco's Modified Eagle Media (DMEM) (Gibco-BRL) containing 10% Fetal calf serum (FCS) (Sigma) and 1 mg/ml G418 (Gibco-BRL). Cells were seeded the night before (1.5×10^4 cells/well) in 96-well tissue-culture sterile plates. Compound and no compound controls were prepared in DMEM containing 4% FCS, 1:100 Penicillin/Streptomysin (Gibco-BRL), 1:100 L-glutamine and 5% DMSO in the dilution plate (0.5% DMSO final concentration in the assay). Compound/DMSO mixes were added to the cells and incubated for 4 days at 37° C. After 4 days, cells were first assessed for cytotoxicity using alamar Blue (Trek Diagnostic Systems) for a CC50 reading. The toxicity of compound (CC50) was determined by adding 1/10th volume of alamar Blue to the media incubating the cells. After 4 h, the fluorescence signal from each well was read, with an excitation wavelength at 530 nm and an emission wavelength of 580 nm, using the Cytofluor Series 4000 (Perspective Biosystems). Plates were then rinsed thoroughly with Phosphate-Buffered Saline (PBS) (3 times 150 μl).
As a secondary assay, EC50 determinations from the replicon FRET assay were confirmed in a replicon luciferase reporter assay. Utilization of a replicon luciferase reporter assay was first described by Krieger et al (Krieger N, Lohmann V, and Bartenschlager R, J. Viral. 75(10):4614-4624 (2001)). The replicon construct described for our FRET assay was modified by inserting cDNA encoding a humanized form of the Renilla luciferase gene and a linker sequence fused directly to the 3′-end of the luciferase gene. This insert was introduced into the replicon construct using an Asc1 restriction site located in core, directly upstream of the neomycin marker gene. The adaptive mutation at position 1179 (serine to isoleucine) was also introduced (Blight K J, Kolykhalov, A A, Rice, C M, Science 290(5498):1972-1974). A stable cell line constitutively expressing this HCV replicon construct was generated as described above. The luciferase reporter assay was set up as described for the HCV replicon FRET assay with the following modifications. Following 4 days in a 37° C./5% CO2 incubator, cells were analyzed for Renilla Luciferase activity using the Promega Dual-Glo Luciferase Assay System. Media (100 μl) was removed from each well containing cells. To the remaining 50 μl of media, 50 μl of Dual-Glo Luciferase Reagent was added, and plates rocked for 10 min to 2 h at room temperature. […]

T1 sequence (P27958 1027-1711 C1454S/C1711G, one chain of several): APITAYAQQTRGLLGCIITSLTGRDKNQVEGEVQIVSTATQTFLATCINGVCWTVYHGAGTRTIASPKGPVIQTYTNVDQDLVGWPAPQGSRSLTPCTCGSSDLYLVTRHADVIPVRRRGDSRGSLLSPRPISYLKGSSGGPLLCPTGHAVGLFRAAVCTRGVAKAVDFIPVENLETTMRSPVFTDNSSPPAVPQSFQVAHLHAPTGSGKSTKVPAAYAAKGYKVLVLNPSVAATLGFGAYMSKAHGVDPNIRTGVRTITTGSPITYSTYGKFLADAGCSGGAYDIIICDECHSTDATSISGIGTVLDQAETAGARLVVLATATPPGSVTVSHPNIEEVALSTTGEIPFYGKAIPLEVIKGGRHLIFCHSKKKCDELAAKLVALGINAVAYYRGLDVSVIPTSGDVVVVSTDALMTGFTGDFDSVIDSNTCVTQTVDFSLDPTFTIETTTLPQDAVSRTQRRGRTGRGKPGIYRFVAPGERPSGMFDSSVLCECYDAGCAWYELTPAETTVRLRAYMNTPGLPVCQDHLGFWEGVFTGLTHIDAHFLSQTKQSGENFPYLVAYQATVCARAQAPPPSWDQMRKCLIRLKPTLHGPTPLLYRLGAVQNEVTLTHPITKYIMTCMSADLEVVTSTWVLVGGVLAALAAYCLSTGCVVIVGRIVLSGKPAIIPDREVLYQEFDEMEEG

SMILES | IC50 ([1]; class symbols) | EC50 ([2]; class symbols) | EC50 ([2]; numeric values) | IC50 ([1]; numeric values)
CO[C@@]12C[C@@H](C(=O)N[C@]3(C(=O)NS(=O)(=O)C4CC4)C[C@H]3C3CC3)N(C1)C(=O)[C@H](C(C)(C)C)NC(=O)OCC(C)(C)CCCCc1cc(N(C)C)ccc1-c1ccc2cc1 [Example 22] | 1 to 3 nM | – | – | –
CO[C@@]12C[C@@H](C(=O)N[C@]3(C(=O)NS(=O)(=O)C4CC4)C[C@H]3C3CC3)N(C1)C(=O)[C@H](C(C)(C)C)NC(=O)OCCC(C)(C)CCCc1ccccc1-c1ccc2cc1 [Example 3] | 4 to 7 nM | 21 to 30 nM | – | –
C=C[C@@H]1C[C@]1(NC(=O)[C@@H]1C[C@]2(OC)CN1C(=O)[C@H](C(C)(C)C)NC(=O)OCC(C)(C)CCCCc1cc(OC)ccc1-c1ccc2cc1)C(=O)NS(=O)(=O)C1CC1 [Example 12] | 1 to 3 nM | 5.5 to 10 nM | – | –
CO[C@@]12C[C@@H](C(=O)N[C@]3(C(=O)NS(=O)(=O)C4CC4)C[C@H]3C3CC3)N(C1)C(=O)[C@H](C(C)(C)C)NC(=O)OCC(C)(C)CCCc1ccccc1-c1ccc2cc1 [Example 16] | 4 to 7 nM | – | – | –
C=C[C@@H]1C[C@]1(NC(=O)[C@@H]1C[C@]2(OC)CN1C(=O)[C@H](C(C)(C)C)NC(=O)OCCCCCCc1ccccc1-c1ccc2cc1)C(=O)NS(=O)(=O)C1CC1 [Example 1] | – | – | 5 nM | 1 nM
CO[C@@]12C[C@@H](C(=O)N[C@]3(C(=O)NS(=O)(=O)C4CC4)C[C@H]3C3CC3)N(C1)C(=O)[C@H](C(C)(C)C)NC(=O)OCC(C)(C)CCCCc1ccccc1-c1ccc2cc1 [Example 5] | 4 to 7 nM | 11 to 20 nM | – | –
C=C[C@@H]1C[C@]1(NC(=O)[C@@H]1C[C@]2(OC)CN1C(=O)[C@H](C(C)(C)C)NC(=O)OCCCCCc1ccccc1-c1ccc2cc1)C(=O)NS(=O)(=O)C1CC1 [Example 15] | 4 to 7 nM | – | – | –
CO[C@@]12C[C@@H](C(=O)N[C@]3(C(=O)NS(=O)(=O)C4CC4)C[C@H]3C3CC3)N(C1)C(=O)[C@H](C(C)(C)C)NC(=O)OCCCCCc1ccccc1-c1ccc2cc1 [Example 14] | 8 to 11 nM | – | – | –
C=C[C@@H]1C[C@]1(NC(=O)[C@@H]1C[C@]2(OC)CN1C(=O)[C@H](C(C)(C)C)NC(=O)OCC(C)(C)CCCCc1ccccc1-c1ccc2cc1)C(=O)NS(=O)(=O)C1CC1 [Example 6] | 1 to 3 nM | 5.5 to 10 nM | – | –
CO[C@@]12C[C@@H](C(=O)N[C@]3(C(=O)NS(=O)(=O)C4CC4)C[C@H]3C3CC3)N(C1)C(=O)[C@H](C(C)(C)C)NC(=O)OCCCCCCc1ccccc1-c1ccc2cc1 [Example 2] | – | – | 16 nM | 1.5 nM
C=C[C@@H]1C[C@]1(NC(=O)[C@@H]1C[C@]2(OC)CN1C(=O)[C@H](C(C)(C)C)NC(=O)OCCCCc1cc2ccc1-c1ccccc1)C(=O)NS(=O)(=O)C1CC1 [Example 8] | 8 to 11 nM | 21 to 30 nM | – | –
CO[C@@]12C[C@@H](C(=O)N[C@]3(C(=O)NS(=O)(=O)C4CC4)C[C@H]3C3CC3)N(C1)C(=O)[C@H](C(C)(C)C)NC(=O)OCCCCc1cccc(c1)-c1cccc2c1 [Example 21] | 1 to 3 nM | – | – | –
C=C[C@@H]1C[C@]1(NC(=O)[C@@H]1C[C@]2(OC)CN1C(=O)[C@H](C(C)(C)C)NC(=O)OCCC(C)(C)CCCc1ccccc1-c1ccc2cc1)C(=O)NS(=O)(=O)C1CC1 [Example 4] | 1 to 3 nM | 11 to 20 nM | – | –
CO[C@@]12C[C@@H](C(=O)N[C@]3(C(=O)NS(=O)(=O)C4CC4)C[C@H]3C3CC3)N(C1)C(=O)[C@H](C(C)(C)C)NC(=O)OCCCCCCCc1ccccc1-c1ccc2cc1 [Example 18] | 1 to 3 nM | – | – | –
COc1ccc2c(c1)CCCCC(C)(C)COC(=O)N[C@@H](C(C)(C)C)C(=O)N1C[C@@](OC)(C[C@H]1C(=O)N[C@]1(C(=O)NS(=O)(=O)C3CC3)C[C@H]1C1CC1)c1ccc-2cc1 [Example 13] | 4 to 7 nM | – | – | –
CO[C@@]12C[C@@H](C(=O)N[C@]3(C(=O)NS(=O)(=O)C4CC4)C[C@H]3C3CC3)N(C1)C(=O)[C@H](C(C)(C)C)NC(=O)OCCCCCCc1ccc(Cl)cc1-c1ccc2cc1 [Example 20] | 1 to 3 nM | – | – | –
CO[C@@]12C[C@@H](C(=O)N[C@]3(C(=O)NS(=O)(=O)C4CC4)C[C@H]3C(F)F)N(C1)C(=O)[C@H](C(C)(C)C)NC(=O)OCC(C)(C)CCCCc1ccccc1-c1ccc2cc1 [Example 7] | 1 to 3 nM | 5.5 to 10 nM | – | –
C=C[C@@H]1C[C@]1(NC(=O)[C@@H]1C[C@]2(OC)CN1C(=O)[C@H](C(C)(C)C)NC(=O)OCCCCCCCc1ccccc1-c1ccc2cc1)C(=O)NS(=O)(=O)C1CC1 [Example 19] | 1 to 3 nM | – | – | –
